According to US9115073B2, “1,3-diphenylpropane derivatives, preparations and uses thereof” (GENFIT, priority 2011, dated 2015):

Columns and labels:
[1] = biological target: T1, hPPARdelta (Homo sapiens, UniProt Q03181); test: Gal4-hPPARdelta transactivation assay in COS-7 cells (luciferase); assay type: cell-based
T1 construct: Gal4-hPPARδ(LBD); Gal4 (fusion partner); expressed in transfected cells; host or cells: COS-7 (monkey kidney)
T1 sequence (Q03181 211-439 limits assumed): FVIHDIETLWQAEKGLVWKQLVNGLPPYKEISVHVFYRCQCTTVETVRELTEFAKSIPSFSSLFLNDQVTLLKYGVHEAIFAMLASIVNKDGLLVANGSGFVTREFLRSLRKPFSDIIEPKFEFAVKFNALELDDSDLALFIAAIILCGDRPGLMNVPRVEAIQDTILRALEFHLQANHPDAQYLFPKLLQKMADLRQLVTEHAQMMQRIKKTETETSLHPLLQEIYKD
In short: (§1)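 COS-7 cells transiently co-transfected with Gal4-hPPAR chimeras and a Gal4(RE)_TkpGL3 luciferase reporter (1/50 ratio) were seeded at 20,000 cells/well for 4 h, then treated in 2% lipid-free synthetic serum medium (0.1% DMSO). EC50 and Hill slope came from fitted luciferase curves. Emax is relative to fenofibrate 100 μM (α), rosiglitazone 10 μM (γ) or GW501516 1 μM (δ).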

[2] = test system: db/db mice; test: Diabetes model (db/db mice): non-fasting glycemia and HbA1c; assay type: in vivo, mouse
Protocol: Diabetes Model (db/db Mice)
The male db/db mice (8 to 9 week-old) were purchased from CERJ JANVIER (Le Genest Saint Isle, France). Animal care and handling was performed according to the Declaration of Helsinki and was approved by the local ethics committees. The animals were kept under a 12 hour light/dark standard light cycle and had free access to water and food. Animals were fed standard rodent chow diet (A03 SAFE, Augy, France). Mice were randomly assigned into different treatment groups, weighed and dosed by oral gavage (10 ml/kg body weight) once daily in the morning, either with the vehicle or with the compound. The vehicle used was 0.1% Tween 80 (Polyoxyethylenesorbitan monooleate) and 1% carboxymethylcellulose in 98.9% distilled water. The entire treatment protocol took 37 days. Non-fasting glycemia was measured at 8 A.M. with the Smart Check blood glucose monitoring system, in mice that have had unrestricted access to food and water throughout the night. The blood concentration of the glycosylated hemoglobin A1c was determined using the Randox kit for Daytona automate (Randox, cat# HA 3830) according to the manufacturer's recommendations. The HbA1c result was calculated as a percentage of the total hemoglobin concentration.

[3] = test system: APPPS1 mice; test: Alzheimer's disease model (APPPS1 mice): Morris-Water-Maze test; assay type: in vivo, mouse; conditions: 60 days, +/- standard deviation
[4] = biological target: T2, hPPARalpha (Homo sapiens, UniProt Q07869); test: Gal4-hPPARalpha transactivation assay in COS-7 cells (luciferase); assay type: cell-based
T2 construct: Gal4-hPPARα(LBD); Gal4 (fusion partner); expressed in transfected cells; host or cells: COS-7 (monkey kidney)
T2 sequence (Q07869 239-466 limits assumed): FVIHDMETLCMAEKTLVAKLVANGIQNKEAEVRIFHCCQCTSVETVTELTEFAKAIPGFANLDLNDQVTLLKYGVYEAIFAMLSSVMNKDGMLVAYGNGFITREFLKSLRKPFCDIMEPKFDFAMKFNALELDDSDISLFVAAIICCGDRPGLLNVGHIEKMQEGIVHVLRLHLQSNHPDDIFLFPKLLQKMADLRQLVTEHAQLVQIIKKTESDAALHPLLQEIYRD
In short: as §1

[5] = maximal relative activation vs reference, listed as cpd 14-1-2
[6] = treated group, start of study period

With `COC(c1ccc(OC(F)(F)F)cc1)C1CC1c1cc(C)c(OC(C)(C)C(=O)O)c(C)c1` (single isomer, unassigned) [Cpd 14-1-2, 2-(4-(2-(methoxy(4-(trifluoromethoxy)phenyl)methyl)cyclopropyl)-2,6-dimethylphenoxy)-2-methylpropanoic acid] the EC50 ([1]; Gal4-hPPARδ(LBD) transactivation) was 4 nM, the “Gal4-hPPARδ(LBD) TOP (% ref)” value [1, 5] was 90 % ref and the Non-fasting glycemia ([2]; 3 mg per kg per day by gavage, day 30) was 146 mg/dL. The “glycated hemoglobin (HbA1c)” value ([2]; 3 mg per kg per day by gavage, day 37) was 4.12%, the “decrease of non-fasting glycemia during the study period” value ([2]; 3 mg per kg per day by gavage, start to day 30) was 48% and the “change in HbA1c during the study period” value ([2]; 3 mg per kg per day by gavage, start to day 37) was “no significant change”. For the same compound, the “non-fasting glycemia lower as compared to untreated controls” value ([2]; 3 mg per kg per day, day 30, t-test p-value <0.0001) was 60%, the “HbA1c lower as compared to the diabetic controls” value ([2]; 3 mg per kg per day, day 37, t-test p-value <0.01) was 28% and the Non-fasting glycemia [2, 6] was 258 mg/dL. For the same compound, the “glycated hemoglobin (HbA1c)” value [2, 6] was 4.16%, the “Morris-Water maze distance, mean reduction from untreated APPPS1 mice” value ([3]; 1 mpk per day) was 22.6 % +/− 21% (*) and the “Morris-Water maze latency, mean reduction from untreated APPPS1 mice” value ([3]; 1 mpk per day) was 45.6 % +/− 16 % (**). For the same compound, the “Morris-Water maze distance, mean reduction from untreated APPPS1 mice” value ([3]; 10 mpk per day) was 31.1 % +/− 18 % (**), the “Morris-Water maze latency, mean reduction from untreated APPPS1 mice” value ([3]; 10 mpk per day) was 39.9 % +/− 20 % (**) and the EC50 ([4]; Gal4-hPPARα(LBD) transactivation) was 12 nM. For the same compound, the “Gal4-hPPARα(LBD) TOP (% ref)” value [4, 5] was 46 % ref.
